Assay results as given in patent US20140286906A1, “USE OF IGF-1 IN THE MODULATION OF TREG CELL ACTIVITY AND THE TREATMENT AND PREVENTION OF AUTOIMMUNE DISORDERS OR DISEASES” (priority 2011, published 2014).

Columns and labels:
[1] = system: FOXP3 positive cells (CD25+ splenic cells); experiment: Foxp3 and Ki67 flow cytometric analysis of Treg proliferation; assay type: cell-based, murine
Experimental: To determine the effect of IGF-1 in the regulatory subset in vitro (cf. FIG. 4) the number of FOXP3 positive cells is determined by flow cytometric analysis. To analyze other subsets, like the proinflammatory Th1 and Th17 subsets, a similar approach is used but the number of interferon-gamma (Th1) and IL-17 (Th17) positive cells is determined. Additionally, to evaluate the number of proliferating cells at a given moment cells are stained using the intracellular marker Ki67, which is expressed only in cycling cells. The combination of a specific lineage marker (e.g., Foxp3, IFN-g, IL-17) with Ki67 allows for the determination at a given moment of the cells belonging to a certain subset and their proliferative status.
In animal experiments, the population is isolated normally from murine spleen (but also could be isolated from other tissues, like for example but not restricted to bone marrow, adipose tissue, cord blood derived mononuclear cell, thymus, or peripheral blood) and is sorted using different markers (e.g., CD4 and CD25). This population is defined as CD4+CD25+ and includes the regulatory cells. This population is then treated in the above-mentioned medium in the presence of IGF-1. After several days of culture part of the cells are counted, fixed, permeabilized and analyzed by flow cytometry using an anti-FOXP3 antibody in combination with the same extracellular markers (CD4 and CD25). This allows for the determination of the absolute number of FOXP3 positive cells present in the culture.
To further define the proliferative effects of IGF-1, FACS-sorted CD25+ splenic cells (>98% purity) after two days in culture with recombinant IGF-1 were fixed, permeabilized and stained with antibodies against FOXP3 and Ki67. Foxp3 is a transcription factor that orchestrates the cellular and molecular programs involved in T regulatory function. Ki67 is a nuclear antigen present in proliferating cells. […] After three days of culture the number of FOXP3 positive cells was increased four-fold and the number of regulatory T cells proliferating approximately six-fold.

[2] = system: CD4+CD25+ splenic cells; experiment: flow cytometry of activation and homing markers on CD4+CD25+ splenic cells; assay type: cell-based, murine; settings: Deguelin 1 μM; Ly-294,002 and PD.98,059 10 μM (FIG. 10)
Description: The expression of certain markers on the surface of the cell is correlated with the degree of activation of the cells and also controls their trafficking and localization and consequently the compartmentalization of the immune responses. This is again measured using flow cytometric methods. For example, cells expressing high levels of CD62L preferentially migrate to secondary lymphoid tissues. However, as these cells enter the periphery (for example when they travel to affected tissues during an autoimmune process) they rapidly acquire an activated phenotype and express higher levels of CD44. Thus upregulation of CD44 is associated with a higher proliferation rate. […] The importance of this observation comes from the fact that in order to exert their suppressive properties, Tregs need to migrate to the affected tissues first. Therefore, IGF-1 not only induces activation of proliferation but also promotes their correct localization.
Finally, the inventors analyzed the ability of IGF-1 to alter the homing properties of the regulatory T cell subset. In 2003, Fisson et al. defined two distinct population of regulatory T cells in homeostatic conditions. In the steady state, some Tregs remain quiescent for long periods of time, whereas the other Treg population divides extensively and express multiple activation markers. […] This pattern of change is also consistent with a more activated phenotype. On one hand, CD44^hiCD62L^lo Treg populations, but not their CD44^loCD62L^hi counterparts, constantly incorporate BrdU, a synthetic analog of thymidine, into newly synthesized DNA in lymphoid tissues (Matsushima and Takashima, 2010). On the other hand, higher levels of CD62L have been associated with a higher capacity of Tregs to migrate to the lymph nodes, while lower levels allows them to migrate to sites of inflammation (Fisson et al., 2003; Bromley et al., 2008). Thus, T regulatory cells expressing lower levels of CD62L would have a higher inflammation-seeking capacity, which has been associated with higher suppressive potential in various inflammation models (Huehn et al., 2005). […] One, IGF-1 is able to activate a complex pathway resulting in Treg activation leading to proliferation and to selective homing and migration to the sites of inflammation. The second conclusion comes from the observation that sequential migration from blood to the target tissue and then to draining lymph nodes is required for nTreg to differentiate and execute fully their suppressive function, by inhibiting dendritic cells in the peripheral tissue and T effector cell responses in dLN and periphery (Zhang et al., 2009). Thus, IGF-1 treatment not only results in higher numbers of T regulatory cells but also in altering the trafficking of these cells to achieve a higher suppressive effect. […]

Row | Structure (SMILES) | effect of inhibitor on IGF-1 effect on Treg proliferation ([1]; inhibitor 1 μM) | sensitivity of IGF-1 induced CD62L and CD44 changes to pathway inhibitor [2] | effect of inhibitor on IGF-1 effect on Treg proliferation ([1]; inhibitor 10 μM)
1 | COc1cc2c(cc1OC)[C@@H]1C(=O)c3ccc4c(c3O[C@@H]1CO2)C=CC(C)(C)O4 [Deguelin, reference compound] | partially blocked | more sensitive | 
2 | O=c1cc(N2CCOCC2)oc2c(-c3ccccc3)cccc12 [Ly-294,002, reference compound] |  |  | sensitive
3 | COc1cccc(-c2cc(=O)c3ccccc3o2)c1N [PD.98,059, reference compound] |  |  | partially blocked
